The values below come from patent publication US20240228446A1, “PREPARATION METHOD FOR BICYCLIC COMPOUND AND APPLICATION AS ANTIFUNGAL AGENT” (priority 2021, published 2024).

In brackets after ≈: the same amount, converted by molar mass.

For one test, the system named is Candida albicans ATCC MYA-2876. Briefly: Minimal inhibitory concentration (MIC) test on fungal growth (CLSI M27, yeasts). The conditions noted are these: Candida albicans; lowest concentration inhibiting growth of yeast by 50%; 35° C., 24 hours; RPMI1640; read-out: MIC Candida albicans ATCC MYA-2876. It counts as cell-based. How it is done:
• RPMI1640 medium: Brand: Gibco, article number: 31800-014 • Sabouraud dextrose agar (SDA): Brand: Hope Bio, article number: HB0253-81 • Voriconazole: Brand: Adamas, article number: 22105A • Amphotericin B: Brand: AbCam, article number: ab141199
MIC test was conducted in accordance with the guidelines and requirements of CLSI M27 (for yeasts) and M38 (for Aspergillus).
Strain preparation: The strains were inoculated 1 day in advance by streaking on SDA plates with glycerol strains stored at −80° C. The strains were cultured at 35° C. and 40 to 60% humidity for 18 to 24 hours. Streak inoculation of Aspergillus fumigatus and Cryptococcus neoformans was required to be done 3 days and 2 days in advance, respectively.
Preparation of culture medium and compounds: The liquid culture medium RPMI was prepared with pure water, and 0.165 mol/L MOPS was added to adjust the pH to 7.0. The mixture was filtered with a 0.22 μm-membrane filter, sterilized, and stored at 4° C. (no more than 3 months). 0.85% physiological saline was sterilized at 121° C. for 30 min and then stored at room temperature (no more than 1 week). The compounds were dissolved in DMSO to 12.8 mg/mL and stored at −20° C.
For yeast, 3 to 5 colonies were selected from the SDA plate on the day of testing and fully suspended in 5 mL of sterilized 0.85% physiological saline. The turbidity of the bacterial suspension was measured with a turbidimeter, and the turbidity was adjusted to approximately 0.2. The bacterial suspension was 50-fold and 20-fold (1000-fold in total) diluted in RPMI1640 medium, respectively, to serve as the inoculum. The final inoculum concentration was 500 to 2500 CFU/mL.
The compound was diluted to the highest 800 μg/mL (or 400 μg/mL) with DMSO, and a 10-step 2-fold gradient dilution was performed, resulting in 11 concentrations. 2 μL of the gradient-diluted compound was transferred to the corresponding wells of a 96-well plate, and then 198 μL of the inoculum was transferred to the test plate. The plate was incubated at 35° C. for 24 hours (Aspergillus fumigatus and Cryptococcus neoformans were incubated for 48 and 72 hours, respectively).
After the incubation, the growth of the fungi was visually observed. The lowest concentration of the compound that inhibited the growth of yeast by 50% (inhibited Aspergillus by 100%) was defined as the minimum inhibitory concentration (MIC, μg/mL). A magnifying glass or reading at OD530 nm could be used to assist in determining the MIC. Photos were taken of the test plates for record keeping.
Usually MIC stands for the lowest concentration found to suppress growth. For `O[C@H](CNc1ccc(C23CC(C(F)(F)[C@](O)(Cn4cnnn4)c4ccc(F)cc4F)(C2)C3)cn1)C(F)(F)F` (relative stereo) [Compound 99A], the MIC came to 0.016 µg/mL (≈ 0.0293 µM).

Regarding `O[C@@H](CNc1ccc(C23CC(C(F)(F)[C@](O)(Cn4cnnn4)c4ccc(F)cc4F)(C2)C3)cn1)C(F)(F)F` (relative stereo) [Compound 99B], the MIC came out at 0.03 µg/mL (≈ 0.0549 µM).

Consider `O[C@H](COc1ccc(C23CC(C(F)(F)[C@](O)(Cn4cnnn4)c4cc(F)ccc4F)(C2)C3)cc1)C(F)(F)F` (relative stereo) [Compound 165A], for which the MIC worked out at 0.016 µg/mL (≈ 0.0293 µM).

With `O[C@](Cn1cncn1)(c1ccc(F)cc1F)C(F)(F)C12CC(C1)C2` (single isomer, unassigned) [Compound 10B], the MIC stood at 1 µg/mL (≈ 2.93 µM).

Turning to `C[C@@](F)(C12CC(c3ccc(OCC(F)(F)F)cc3)(C1)C2)[C@](O)(Cn1cnnn1)c1ccc(F)cc1F` (single isomer, unassigned) [Compound 18A], the MIC was found to be 0.0078 µg/mL (≈ 0.0152 µM). On the same count and under the same terms, for `CNC(=O)COc1ccc(C23CC(C(F)(F)[C@@](O)(Cn4cncn4)c4ccc(F)cc4F)(C2)C3)cc1` (single isomer, unassigned) [Compound 35B] the value was 0.125 µg/mL (≈ 0.248 µM).

On to `COc1ccc(C23CC(C(F)(F)[C@@](O)(Cn4cnnn4)c4ccc(F)cc4F)(C2)C3)cc1` (stereo in doubt) [Compound 1B], for which the MIC was 0.5 µg/mL (≈ 1.12 µM). Still for that read-out and setting: in the case of `O[C@](Cn1cncn1)(c1ccc(F)cc1F)C(F)(F)C12CC(c3ccc(OCC(F)(F)F)cc3)(C1)C2` (stereo in doubt) [Compound 2B] it was 0.25 µg/mL (≈ 0.485 µM). On the same count and under the same terms, for `N[C@@](Cn1cnnn1)(c1ccc(F)cc1F)C(F)(F)C12CC(c3ccc(OCC(F)(F)F)cc3)(C1)C2` (stereo in doubt) [Compound 4A] the value was 0.06 µg/mL (≈ 0.116 µM); for `N#Cc1ccc(C23CC(C[C@](O)(Cn4cncn4)c4ccc(F)cc4F)(C2)C3)cc1` (stereo in doubt) [Compound 91A], at most 0.0039 µg/mL; for `O[C@@](Cn1cnnn1)(c1ccc(F)cc1F)C(F)(F)C12CC(c3cnc(OCC(F)(F)F)cn3)(C1)C2` (stereo in doubt) [Compound 107A], 0.016 µg/mL (≈ 0.0309 µM). The same measure, in the same setting: for `O[C@@](Cn1ncnn1)(c1ccc(F)cc1F)C(F)(F)C12CC(c3cnc(OCC(F)(F)F)nc3)(C1)C2` (stereo in doubt) [Compound 110A] the value was 0.016 µg/mL (≈ 0.0309 µM). As to `OC1(COc2ccc(C34CC(C(F)(F)[C@](O)(Cn5cnnn5)c5ccc(F)cc5F)(C3)C4)cc2)COC1` (stereo in doubt) [Compound 150A], the MIC came to 0.016 µg/mL (≈ 0.0307 µM). Same read-out and setting: in the case of `O[C@](Cn1cnnn1)(c1ccc(F)cc1F)C(F)(F)C12CC(c3ccc(OCC(F)(F)F)cc3)(C1)C2` [Compound 3B] it was 1 µg/mL (≈ 1.94 µM). For the compound `OC(Cn1cncn1)(c1ccc(Cl)cc1F)C(F)(F)C12CC(c3ccc(OCC(F)(F)F)cc3)(C1)C2` (centres unmarked) [Compound 5], the MIC was 0.016 µg/mL (≈ 0.0301 µM). With `O[C@](Cn1cnnn1)(c1ccc(F)cc1F)C(F)(F)C12CC(C1)C2` [Compound 6B], the MIC came to 2 µg/mL (≈ 5.84 µM). Same read-out and setting: for `OC(Cn1cnnn1)(c1ccc(F)cc1F)C(F)(F)C12CC(C1)C2` (centres unmarked) [Compound 6] the value was 0.13 µg/mL (≈ 0.38 µM). The same measure, in the same setting: for `OC(Cn1cnnn1)(c1ccc(Cl)cc1F)C(F)(F)C12CC(c3ccc(OCC(F)(F)F)cc3)(C1)C2` (centres unmarked) [Compound 7] the value was 0.016 µg/mL (≈ 0.03 µM).

Turning to `N#Cc1ccc(C23CC(C(F)(F)C(O)(Cn4cnnn4)c4ccc(F)cc4F)(C2)C3)cc1` (centres unmarked) [Compound 8], the MIC came to 0.5 µg/mL (≈ 1.13 µM). As for `OC(Cn1cnnn1)(c1cc(F)ccc1F)C(F)(F)C12CC(c3ccc(OCC(F)(F)F)cc3)(C1)C2` (centres unmarked) [Compound 9], the MIC was 0.03 µg/mL (≈ 0.0581 µM). As for `OC(Cn1cncn1)(c1ccc(F)cc1F)C(F)(F)C12CC(C1)C2` (centres unmarked) [Compound 10], the MIC was at most 0.0039 µg/mL. Same read-out and setting: for `OC(Cn1cnnn1)(c1ccc(F)cc1F)C(F)(F)C12CC(I)(C1)C2` (centres unmarked) [Compound 11] the value was 0.03 µg/mL (≈ 0.0641 µM). On the same count and under the same terms, for `CC12CC(C(F)(F)C(O)(Cn3cnnn3)c3ccc(F)cc3F)(C1)C2` (centres unmarked) [Compound 14] the value was 0.03 µg/mL (≈ 0.0842 µM).

Turning to `COc1ccc(C23CC(C(C)(F)C(O)(Cn4cnnn4)c4ccc(F)cc4F)(C2)C3)cc1` (centres unmarked) [Compound 17], the MIC was found to be 0.125 µg/mL (≈ 0.281 µM). On the same count and under the same terms, for `C[C@](F)(C12CC(c3ccc(OCC(F)(F)F)cc3)(C1)C2)[C@@](O)(Cn1cnnn1)c1ccc(F)cc1F` [Compound 18B] the value was 2 µg/mL (≈ 3.9 µM). The same measure, in the same setting: in the case of `CC(F)(C12CC(c3ccc(OCC(F)(F)F)cc3)(C1)C2)C(O)(Cn1cnnn1)c1ccc(F)cc1F` (centres unmarked) [Compound 18] it was 0.016 µg/mL (≈ 0.0312 µM). Same read-out and setting: for `N#Cc1ccc(COc2ccc(C#CC34CC(C(F)(F)C(O)(Cn5cnnn5)c5ccc(F)cc5F)(C3)C4)cc2)cc1` (centres unmarked) [Compound 19] the value was 0.016 µg/mL (≈ 0.0279 µM); for `Oc1ccc(C23CC(C(F)(F)C(O)(Cn4cnnn4)c4ccc(F)cc4F)(C2)C3)cc1` (centres unmarked) [Compound 20], 0.13 µg/mL (≈ 0.299 µM); for `Oc1ccc(C23CC(C(F)(F)[C@@](O)(Cn4cncn4)c4ccc(F)cc4F)(C2)C3)cc1` [Compound 21B], 1 µg/mL (≈ 2.31 µM). Turning to `OC(Cn1cnnn1)(c1ccc(F)cc1F)C(F)(F)C12CC(c3ccc(OC(F)(F)F)cc3)(C1)C2` (centres unmarked) [Compound 24], the minimal inhibitory concentration (MIC) was 0.03 µg/mL (≈ 0.0597 µM). As for `OC(Cn1cnnn1)(c1ccc(F)cc1F)C(F)(F)C12CC(c3ccc(OC(F)F)cc3)(C1)C2` (centres unmarked) [Compound 26], the MIC was 0.016 µg/mL (≈ 0.033 µM).

As to `N#Cc1ccc(C23CC(C(F)(F)[C@@](Cn4cncn4)(OP(=O)(O)O)c4ccc(F)cc4F)(C2)C3)cc1` [Compound 27A-P1], the MIC came out at 2 µg/mL (≈ 3.83 µM). The same measure, in the same setting: in the case of `N#Cc1ccc(C23CC(C(F)(F)[C@@](Cn4cncn4)(OCOP(=O)(O)O)c4ccc(F)cc4F)(C2)C3)cc1` [Compound 27A-P2] it was 0.5 µg/mL (≈ 0.905 µM); in that of `N#Cc1ccc(C23CC(C(F)(F)[C@@](O)(Cn4cncn4)c4ccc(F)cc4F)(C2)C3)cc1` [Compound 27B], 0.06 µg/mL (≈ 0.136 µM). The same measure, in the same setting: in the case of `N#Cc1ccc(C23CC(C(F)(F)[C@](O)(Cn4cnnn4)c4cc(F)ccc4F)(C2)C3)cc1` [Compound 28A] it was 0.25 µg/mL (≈ 0.564 µM); in that of `N#Cc1ccc(C23CC(C(F)(F)C(O)(Cn4cnnn4)c4cc(F)ccc4F)(C2)C3)cc1` (centres unmarked) [Compound 28], 0.016 µg/mL (≈ 0.0361 µM); in that of `N#Cc1ccc(C23CC(C(F)(F)[C@@](O)(Cn4cncn4)c4cc(F)ccc4F)(C2)C3)cc1` [Compound 29B], 0.125 µg/mL (≈ 0.283 µM). In the case of `N#Cc1cccc(C23CC(C(F)(F)C(O)(Cn4cnnn4)c4ccc(F)cc4F)(C2)C3)c1` (centres unmarked) [Compound 30], the MIC worked out at 0.06 µg/mL (≈ 0.135 µM). The same measure, in the same setting: for `OC(Cn1cnnn1)(c1ccc(F)cc1F)C(F)(F)C12CC(c3cccc(OCC(F)(F)F)c3)(C1)C2` (centres unmarked) [Compound 31] the value was 0.125 µg/mL (≈ 0.242 µM). On the same count and under the same terms, in the case of `O[C@](Cn1cnnn1)(c1ccc(F)cc1F)C(F)(F)C12CC(c3ccc(Cl)cc3)(C1)C2` [Compound 32B] it was 0.06 µg/mL (≈ 0.132 µM); in that of `OC(Cn1cnnn1)(c1ccc(F)cc1F)C(F)(F)C12CC(c3ccc(Cl)cc3)(C1)C2` (centres unmarked) [Compound 32], 0.016 µg/mL (≈ 0.0353 µM); in that of `OC(Cn1cnnn1)(c1ccc(F)cc1F)C(F)(F)C12CC(c3ccc4c(c3)OCO4)(C1)C2` (centres unmarked) [Compound 33], 0.06 µg/mL (≈ 0.13 µM).

Staying with this test, now noted: lowest concentration inhibiting growth of yeast by 50%; 35° C., 24 hours; RPMI1640.
On to `Oc1ccc(C23CC(C(F)(F)[C@](O)(Cn4cnnn4)c4ccc(F)cc4F)(C2)C3)cc1` (single isomer, unassigned) [Compound 20A], for which the “MIC Candida albicans ATCC MYA-2876” value was 0.06 µg/mL (≈ 0.138 µM). Turning to `O[C@@](Cn1cnnn1)(c1ccc(F)cc1F)C(F)(F)C12CC(C1)C2` [Compound 6A], the “MIC Candida albicans ATCC MYA-2876” value was 0.06 µg/mL (≈ 0.175 µM). In the case of `O[C@@](Cn1cnnn1)(c1ccc(Cl)cc1F)C(F)(F)C12CC(c3ccc(OCC(F)(F)F)cc3)(C1)C2` [Compound 7A], the “MIC Candida albicans ATCC MYA-2876” value is 0.0078 µg/mL (≈ 0.0146 µM).

With `N#Cc1ccc(C23CC(C(F)(F)[C@@](O)(Cn4cnnn4)c4ccc(F)cc4F)(C2)C3)cc1` [Compound 8A], the “MIC Candida albicans ATCC MYA-2876” value came out at 0.0078 µg/mL (≈ 0.0176 µM).

For `O[C@](Cn1cnnn1)(c1cc(F)ccc1F)C(F)(F)C12CC(c3ccc(OCC(F)(F)F)cc3)(C1)C2` [Compound 9A], the “MIC Candida albicans ATCC MYA-2876” value is 0.06 µg/mL (≈ 0.116 µM). On to `CC12CC(C(F)(F)[C@](O)(Cn3cnnn3)c3ccc(F)cc3F)(C1)C2` [Compound 14A], for which the “MIC Candida albicans ATCC MYA-2876” value is 0.016 µg/mL (≈ 0.0449 µM).

Turning to `O[C@@](Cn1cnnn1)(c1ccc(F)cc1F)C(F)(F)C12CC(c3ccc(Cl)cc3)(C1)C2` [Compound 32A], the “MIC Candida albicans ATCC MYA-2876” value was at most 0.0039 µg/mL. The same measure, in the same setting: in the case of `CNC(=O)COc1ccc(C23CC(C(F)(F)[C@](O)(Cn4cnnn4)c4ccc(F)cc4F)(C2)C3)cc1` [Compound 34A] it was 0.0078 µg/mL (≈ 0.0154 µM).
